From patent US7781565B2 (priority 2006, dated 2010)
Entries after “also recorded” stand apart in the source; their conditions may differ.

tested on: NCI-60 cell lines; assay type: cell-based, human

Row | Substance | Cell Line (NCI-60 cell line the peptide is associated with) | Cell Line (NCI-60 cell line the peptide and its motif are associated with) | Cell Line the peptide is associated with (peptide recovered from phage library selection on this NCI-60 cell line) | Cell Line with which the peptide (and its tripeptide motif) is associated
1 | HGGRARL | HT-29 Colon | – | – | –
2 | HGGRYRH | – | UACC 257 Melanoma | – | –
3 | HGGSNDR | – | – | A498 Renal | –
4 | HGLGSGT | – | – | – | RPMI-8226-Leukemia
5 | HGLVTHN | MALME-3M Melanoma | – | – | –
6 | HGRLAFG | – | SK-MEL-28 Melanoma | – | –
7 | HGRVHRL | – | – | – | H23-Lung
8 | HGYRAGG | – | – | – | Hop-62-Lung
9 | HIGLGGL | SF-295 CNS | – | – | –
10 | HKLARGR | – | – | – | EKVX-Lung
11 | HLRGRGV | – | – | – | EKVX-Lung
12 | HLRSGFS | – | DU-145 Prostate | – | –
13 | HNGRLEV | – | – | – | Hop-62-Lung
14 | HPSMGGR | – | – | – | Hop-62-Lung
15 | HQAGGVT | – | UACC62 Melanoma | – | –
16 | HRGGSQS | – | – | – | Molt-4-Leukemia
17 | HRLRSMS | – | UACC62 Melanoma | – | –
18 | HRVSESV | – | OVCAR-5 Ovarian | – | –
19 | HSESAAV | – | – | – | Hop-62-Lung
20 | HSGVSHG | – | – | – | RPMI-8226-Leukemia
21 | HSLVSQP | SNB-19 CNS; also recorded: SF-539 CNS | – | – | –
22 | HSRAVAP | – | – | – | SR Leukemia

Row | Substance | Cell Line (NCI-60 cell line the peptide is associated with) | Cell Line (NCI-60 cell line the peptide and its motif are associated with) | Cell Line the peptide is associated with (peptide recovered from phage library selection on this NCI-60 cell line) | Cell Line with which the peptide (and its tripeptide motif) is associated
23 | HTRAVSE | – | OVCAR-8 Ovarian | – | –
24 | HTYGVRF | – | – | TK-10 Renal | –
25 | HVGLLRA | – | – | – | Hop-62-Lung
26 | HVKNGRV | – | SK-MEL-28 Melanoma | – | –
27 | HVRGRVA | – | SK-MEL-5 Melanoma | – | –
28 | HVRSSYA | – | – | HS 578 T Breast | –
29 | HVSGGSG | – | – | – | Hop-92-Lung
30 | IAASYRG | LOX-IMVI Melanoma | – | – | –
31 | IAAVWRS | HCT-116 Colon | – | – | –
32 | IAGLAVV | SNB-75 CNS | – | – | –
33 | IAMAGLR | – | SK-MEL-2 Melanoma | – | –
34 | IDLGRVN | – | SK-MEL-5 Melanoma | – | –
35 | IDLVSPG | – | OVCAR-8 Ovarian | – | –
36 | IFGAGLR | LOX-IMVI Melanoma | – | – | –
37 | IGAASWF | – | – | MCF-7 Breast | –
38 | IGASLLG | SF-268 CNS | – | – | –
39 | IGAVSGW | SNB-75 CNS | – | – | –
40 | IGGREIT | – | – | – | H23-Lung
41 | IGGRWVV | – | SK-OV-3-3 Ovarian | – | –
42 | IGLRGEN | SNB-75 CNS | – | – | –
43 | IGRLLPL | – | – | – | HL-60-Leukemia
44 | IGSGVGV | – | – | NCI/ADR-RES Breast | –

Row | Substance | Cell Line (NCI-60 cell line the peptide is associated with) | Cell Line (NCI-60 cell line the peptide and its motif are associated with) | Cell Line the peptide is associated with (peptide recovered from phage library selection on this NCI-60 cell line) | Cell Line with which the peptide (and its tripeptide motif) is associated
45 | IGVLASA | – | SK-MEL-28 Melanoma | – | –
46 | IGVRGAV | MALME-3M Melanoma | – | – | –
47 | IGVRGFF | – | – | – | Molt-4-Leukemia
48 | IGWGVLG | – | – | BT-549 Breast | –
49 | IHRGVWG | – | 786-0 Renal | – | –
50 | ILSDLVS | – | – | SN12C Renal | –
51 | INRGSRE | – | SK-MEL-28 Melanoma | – | –
52 | INWAGLS | – | – | – | Hop-92-Lung
53 | IRVSAVV | – | – | HS 578 T Breast | –
54 | ISGVSDD | – | – | BT-549 Breast | –
55 | ISPRSSG | HCT-15 Colon | – | – | –
56 | IYGGLVI | – | SK-MEL-5 Melanoma | – | –
57 | IYPGAVL | – | OVCAR-5 Ovarian | – | –
58 | KAASTED | – | – | SN12C Renal | –
59 | KGDGSVR | – | SK-OV-3-3 Ovarian | – | –
60 | KGRVSAG | SNB-19 CNS; also recorded: SF-539 CNS | – | – | –
61 | KGSVLML | – | – | NCI/ADR-RES Breast | –
62 | KMRIAGR | – | – | SN12C Renal | –
63 | KRAVGRM | – | A498 Renal | – | –
64 | KRESGLG | – | – | – | Hop-62-Lung
65 | KSGLRPA | – | – | – | EKVX-Lung
66 | KSGSSVL | – | – | – | HL-60-Leukemia

Row | Substance | Cell Line (NCI-60 cell line the peptide is associated with) | Cell Line (NCI-60 cell line the peptide and its motif are associated with) | Cell Line the peptide is associated with (peptide recovered from phage library selection on this NCI-60 cell line) | Cell Line with which the peptide (and its tripeptide motif) is associated
67 | KVSVASL | – | SK-MEL-5 Melanoma | – | –
68 | KVVGRLG | HCT-116 Colon | – | – | –
69 | KYYGLRR | – | – | – | RPMI-8226-Leukemia
70 | LAAGGEL | – | – | – | RPMI-8226-Leukemia
71 | LACRGPS | – | PC3 Prostate | – | –
72 | LAGGVPG | – | – | – | CCRF-CEM Leukemia
73 | LAGGWGS | SF-295 CNS | – | – | –
74 | LAGLVSG | HT-29 Colon | – | – | –
75 | LAGMRGS | – | UACC62 Melanoma | – | –
76 | LAGRASE | – | OVCAR-4 Ovarian | – | –
77 | LAGSGSH | – | – | – | Molt-4-Leukemia
78 | LAGSRVS | – | OVCAR-4 Ovarian | – | –
79 | LAGSTRR | – | – | – | SR Leukemia
80 | LAIRGLG | SW620-Colon | – | – | –
81 | LAQGRLA | HT-29 Colon | – | – | –
82 | LARGVPP | – | M14 Melanoma | – | –
83 | LASLARP | – | – | T-47D Breast | –
84 | LASLGVG | – | – | – | H23-Lung
85 | LCDAGPS | HCT-116 Colon | – | – | –
86 | LDRSGGL | HCT-116 Colon | – | – | –
87 | LEAGSQL | – | – | – | H226-Lung
88 | LEGVRLF | – | – | – | Hop-62-Lung

Row | Substance | Cell Line (NCI-60 cell line the peptide is associated with) | Cell Line (NCI-60 cell line the peptide and its motif are associated with) | Cell Line the peptide is associated with (peptide recovered from phage library selection on this NCI-60 cell line) | Cell Line with which the peptide (and its tripeptide motif) is associated
89 | LELGRLL | – | – | – | HL-60-Leukemia
90 | LELLSVV | SNB-75 CNS | – | – | –
91 | LERAVRT | HT-29 Colon | – | – | –
92 | LEVGRLF | – | SK-OV-3-3 Ovarian | – | –
93 | LFAVAAV | – | – | – | Hop-62-Lung
94 | LFGSSVS | – | – | SN12C Renal | –
95 | LFHTRSS | – | IGROV1 Ovarian | – | –
96 | LFRWGGR | – | SK-MEL-28 Melanoma | – | –
97 | LGAGEGD | SNB-75 CNS | – | – | –
98 | LGAGMIA | – | OVCAR-8 Ovarian | – | –
99 | LGASLLV | – | – | RXF393 Renal | –
100 | LGGAAVR | – | – | T-47D Breast | –
101 | LGGARGV | – | – | MDA-MB-231 Breast | –
102 | LGGGGLL | KM-12C Colon | – | – | –
103 | LGGLGIH | SF-295 CNS | – | – | –
104 | LGGLGLS | – | OVCAR-5 Ovarian | – | –
105 | LGGLGLY | – | DU-145 Prostate | – | –
106 | LGGLSER | – | SK-OV-3-3 Ovarian | – | –
107 | LGGLSPH | – | – | – | H322-Lung
108 | LGGRADF | – | – | – | CCRF-CEM Leukemia
109 | LGGRLSL | – | – | MDA-MB-231 Breast | –
110 | LGGRQES | – | – | ACHN Renal | –

Row | Substance | Cell Line (NCI-60 cell line the peptide is associated with) | Cell Line (NCI-60 cell line the peptide and its motif are associated with) | Cell Line the peptide is associated with (peptide recovered from phage library selection on this NCI-60 cell line) | Cell Line with which the peptide (and its tripeptide motif) is associated
111 | LGGRTIS | – | DU-145 Prostate | – | –
112 | LGGSGRR | – | – | – | H23-Lung
113 | LGGSRDL | HCT-116 Colon | – | – | –
114 | LGLRAFV | – | – | – | H322-Lung
115 | LGLRGGA | SF-268 CNS | – | – | –
116 | LGLRGWT | – | – | ACHN Renal | –
117 | LGLSGLG | – | – | NCI/ADR-RES Breast | –
118 | LGLVFTR | – | – | T-47D Breast | –
119 | LGLVHWV | – | – | MDA-MB-231 Breast | –
120 | LGLVSTT | HT-29 Colon | – | – | –
121 | LGMGRGV | – | – | SN12C Renal | –
122 | LGQCGRV | – | – | – | HL-60-Leukemia
123 | LGRVHVW | HT-29 Colon | – | – | –
124 | LGSSGLR | – | – | RXF393 Renal | –
125 | LGSSRVL | – | – | – | Hop-92-Lung
126 | LGSSSHI | – | – | NCI/ADR-RES Breast | –
127 | LGTAVSS | SF-268 CNS | – | – | –
128 | LGVRASP | – | – | BT-549 Breast | –
129 | LGVREVG | – | – | HS 578 T Breast | –
130 | LGVRLAS | – | – | BT-549 Breast | –
131 | LGYYGAV | – | – | T-47D Breast | –
132 | LHAGSSV | – | – | MDA-MB-231 Breast | –
